Measured values published in patent publication US11459309B2, “Crystalline forms of a lysyl oxidase-like 2 inhibitor and methods of making” (PHARMAKEA, INC., priority 2016, dated 2022).
Values belong to the compound of their own block, whether it stands above or below them.

Columns and labels:
[1] = Storage of solid forms at 40° C./75% RH or 25° C./97% RH; format: physicochemical; settings: for 7 days storage @ 40° C./75% RH: appearance: table prints 40° C./5% RH, hydrochloride salt
[2] = Method: After each addition of solvent, the system was shaken gently for 10 minutes at 50° C. and then allowed to stand at room temperature for 5 min before the addition of a new aliquot of solvent. After the assessment was completed, any suspensions obtained were matured and clear solutions were cooled at 5° C.
[3] = Stability studies (accelerated, ICH); format: physicochemical
Method: The compounds were assayed according to appearance, purity, related Substances, chiral purity, moisture, DSC, and XRPD

[4] = Solubility and metastable limit curves (clear point / cloud point, Crystal16); format: physicochemical
Method: The samples were then cooled from 70 back to −8° C. at the same rate. The clear point upon heating (at 100% transmission) and the cloud point upon re-cooling (<100% transmission) were recorded using the Crystal16 instrument and the data is shown in Table 17. XRPD analysis was performed on all solids obtained post cooling.

Forced degradation study = format: physicochemical
[5] = Storage of solid forms at 40° C./75% RH or 25° C./97% RH; format: physicochemical; settings: for 7 days storage @ 40° C./75% RH: resulting form (XRPD): 7 days / one week, hydrochloride salt
Method: All retrieved solids from the crystallisation attempts were stored at 40° C. and 75% RH.

[6] = Gravimetric Vapor Sorption (GVS); format: physicochemical; settings: 0 to 90% RH; methanesulfonate salt
Description: Gravimetric Vapor Sorption (GVS) isotherms were obtained using an SMS DVS Intrinsic moisture sorption analyser, controlled by DVS Intrinsic Control software v1.0.1.2 (or v 1.0.1.3), over a range of 0 to 90% relative humidity (RH).

[7] = Organic (qualitative) solubility of Form 1 of Compound 2; format: physicochemical
[8] = Aqueous solubility of Form 1 of Compound 2; format: physicochemical
[9] = Form conversion on heating (thermal analysis / XRPD); format: physicochemical; settings: heated above 150° C.
Method: DSC data were collected on a TA Instruments Q2000 equipped with a 50 position auto-sampler. The calibration for thermal capacity was carried out using sapphire and the calibration for energy and temperature was carried out using certified indium. Typically 0.5-3 mg of each sample, in a pin-holed aluminium pan, was heated at 10° C./min from 25° C. to 300° C. A purge of dry nitrogen at 50 ml/min was maintained over the sample.

SMILES: Cl.NCc1cc(Oc2cccc(C(=O)N3C[C@@H](O)[C@H](F)C3)c2)nc(C(F)(F)F)c1 [Amorphous Compound 1, (R,R)-trans-(3-((4-(aminomethyl)-6-(trifluoromethyl)pyridin-2-yl)oxy)phenyl)(3-fluoro-4-hydroxypyrrolidin-1-yl)methanone, hydrochloride salt]
- 7 days storage @ 40° C./75% RH: appearance [1]: Glassy
- Solubility [2]: 200-100

SMILES: Cl.NCc1cc(Oc2cccc(C(=O)N3C[C@@H](O)[C@H](F)C3)c2)nc(C(F)(F)F)c1 [Compound 1, (R,R)-trans-(3-((4-(aminomethyl)-6-(trifluoromethyl)pyridin-2-yl)oxy)phenyl)(3-fluoro-4-hydroxypyrrolidin-1-yl)methanone, hydrochloride salt]
- 3 month accelerated stability ([3]; 40° C./75% RH, 3 month): no significant changes in purity or absorption of moisture

SMILES: CS(=O)(=O)O.NCc1cc(Oc2cccc(C(=O)N3C[C@@H](O)[C@H](F)C3)c2)nc(C(F)(F)F)c1 [Compound 2, (R,R)-trans-(3-((4-(aminomethyl)-6-(trifluoromethyl)pyridin-2-yl)oxy)phenyl)(3-fluoro-4-hydroxypyrrolidin-1-yl)methanone, methanesulfonate salt]
- Clear Point Temperature ([4]; 5 mg in 1 mL IPA:water 95:5): 6.9 °C
- Clear Point Temperature ([4]; 10 mg in 1 mL IPA:water 95:5): 20.3 °C
- Clear Point Temperature ([4]; 20 mg in 1 mL IPA:water 95:5): 37.2 °C
- Clear Point Temperature ([4]; 30 mg in 1 mL IPA:water 95:5): 48.5 °C
- Cloud Point Temperature ([4]; 30 mg in 1 mL IPA:water 95:5): −7.8 °C
- Clear Point Temperature ([4]; 40 mg in 1 mL IPA:water 95:5): 55.8 °C
- Cloud Point Temperature ([4]; 40 mg in 1 mL IPA:water 95:5): −1.8 °C
- Clear Point Temperature ([4]; 60 mg in 1 mL IPA:water 95:5): 64 °C
- Cloud Point Temperature ([4]; 60 mg in 1 mL IPA:water 95:5): 14.5 °C
- Clear Point Temperature ([4]; 70 mg in 1 mL IPA:water 95:5): 68.6 °C
- Cloud Point Temperature ([4]; 70 mg in 1 mL IPA:water 95:5): 24.7 °C
- forced degradation, solid state, heat (Forced degradation study; solid, 100° C., 24 hours): stable
- forced degradation, solid state, light (Forced degradation study; solid, max 365 nm, 24 hours): stable
- forced degradation, solution state, heat (Forced degradation study; solution, 50° C. for 24 hours): stable
- ICH stability, 1 month data ([3]; long-term (25° C./60%) and accelerated (40° C./75%) conditions of 1-year and 2-year ICH studies): within limits for all attributes tested

SMILES: CS(=O)(=O)O.NCc1cc(Oc2cccc(C(=O)N3C[C@@H](O)[C@H](F)C3)c2)nc(C(F)(F)F)c1 [Form 1 of Compound 2, (R,R)-trans-(3-((4-(aminomethyl)-6-(trifluoromethyl)pyridin-2-yl)oxy)phenyl)(3-fluoro-4-hydroxypyrrolidin-1-yl)methanone, methanesulfonate salt]
- Polymorph stability on storage ([5]; 7 days at 40° C./75% RH and 25° C./97% RH): stable for 7 days
- XRPD after the GVS analysis [6]: Unchanged
- Organic Solubility: Qualitative Solubility ([7]; isopropyl acetate, isopropanol, methyl-ethyl ketone, acetone, ethanol, methyl-t-butyl ether, 1,4 dioxane, toluene, tetrahydrofuran, dichloromethane, acetonitrile): ≤10 mg/mL
- Organic Solubility: Qualitative Solubility ([7]; water, dimethyl sulfoxide): >200 mg/mL
- Aqueous Solubility ([8]; pH 2): >107 mg/mL
- Aqueous Solubility ([8]; pH 7.4): >107 mg/mL
- Aqueous Solubility ([8]; pH 10): >85 mg/mL

SMILES: CS(=O)(=O)O.NCc1cc(Oc2cccc(C(=O)N3C[C@@H](O)[C@H](F)C3)c2)nc(C(F)(F)F)c1 [Form 2 of Compound 2, (R,R)-trans-(3-((4-(aminomethyl)-6-(trifluoromethyl)pyridin-2-yl)oxy)phenyl)(3-fluoro-4-hydroxypyrrolidin-1-yl)methanone, methanesulfonate salt]
- form change after GVS analysis and storage ([5]; after GVS analysis and 7 days at 40° C./75% RH): phase transformation towards Form 1
- form change in humidity ([5]; humidity): converts to Form 1
- form change after storage ([1]; 7 days at 25° C./97% RH): change also occurs
- form change on heating [9]: can transform to Form 1

Results, then the compound that gave them:

- hygroscopicity [5]: hygroscopic solid
- 7 days storage @ 40° C./75% RH: resulting form (XRPD) [5]: transforms to Form 2
- behaviour on storage at 40° C. and 75% RH ([5]; after 24 hours): deliquescing
- 7 days storage @ 40° C./75% RH: appearance [1]: Waxy/glassy
SMILES: Cl.NCc1cc(Oc2cccc(C(=O)N3C[C@@H](O)[C@H](F)C3)c2)nc(C(F)(F)F)c1 [Form 1 of Compound 1, (R,R)-trans-(3-((4-(aminomethyl)-6-(trifluoromethyl)pyridin-2-yl)oxy)phenyl)(3-fluoro-4-hydroxypyrrolidin-1-yl)methanone, hydrochloride salt]

- behaviour on storage conditions ([5]; 1 week, 40° C. and 75% RH): remained unchanged
- 7 days storage @ 40° C./75% RH: resulting form (XRPD) [5]: Form 2
- stability over time ([5]; thermally stable, over time): converts over time to a waxy solid
- 7 days storage @ 40° C./75% RH: appearance [1]: Waxy/glassy
SMILES: Cl.NCc1cc(Oc2cccc(C(=O)N3C[C@@H](O)[C@H](F)C3)c2)nc(C(F)(F)F)c1 [Form 2 of Compound 1, (R,R)-trans-(3-((4-(aminomethyl)-6-(trifluoromethyl)pyridin-2-yl)oxy)phenyl)(3-fluoro-4-hydroxypyrrolidin-1-yl)methanone, hydrochloride salt]
